Data taken from ChEMBL document CHEMBL1153760, “Identification and structure-activity relationships of chromene-derived selective estrogen receptor modulators for treatment of postmenopausal symptoms” (J Med Chem, 2009).

Columns and labels:
Rattus norvegicus = species: Rattus norvegicus; experiment: animal or person; format: functional; conditions: Uterus, 72 h, route oral
Estrogen receptor beta = Estrogen receptor beta (Homo sapiens, UniProt Q92731); experiment: Inhibition of fluormone ES2 binding to estrogen receptor beta after 1 hr by fluorescence polarization assay
Estrogen receptor [1] = molecular target: T1, Estrogen receptor (Homo sapiens, UniProt P03372); experiment: Antagonist activity at estrogen receptor in human Ishikawa cells assessed as 17-beta-estradiol-induced alkaline phosphatase activity after 3 days by chemiluminescence assay; format: functional, cell-based
T1 sequence (P03372 whole entry): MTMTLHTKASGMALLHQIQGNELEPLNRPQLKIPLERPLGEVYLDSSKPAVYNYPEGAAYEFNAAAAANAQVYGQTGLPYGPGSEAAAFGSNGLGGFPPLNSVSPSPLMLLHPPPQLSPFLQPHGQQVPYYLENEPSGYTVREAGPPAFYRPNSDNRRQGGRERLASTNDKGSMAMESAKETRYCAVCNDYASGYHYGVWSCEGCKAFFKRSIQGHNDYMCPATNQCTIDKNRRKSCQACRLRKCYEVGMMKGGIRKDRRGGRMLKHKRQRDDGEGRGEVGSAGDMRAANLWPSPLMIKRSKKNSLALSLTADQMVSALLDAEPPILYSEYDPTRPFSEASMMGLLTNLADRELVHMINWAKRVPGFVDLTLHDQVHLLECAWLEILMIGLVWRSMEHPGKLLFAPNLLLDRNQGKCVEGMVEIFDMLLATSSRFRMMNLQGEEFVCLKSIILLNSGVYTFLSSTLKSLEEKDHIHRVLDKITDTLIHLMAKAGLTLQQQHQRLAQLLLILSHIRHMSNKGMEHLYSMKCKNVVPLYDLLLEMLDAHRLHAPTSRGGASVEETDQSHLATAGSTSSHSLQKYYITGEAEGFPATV

Estrogen receptor [2] = molecular target: T1, Estrogen receptor; experiment: Displacement of radiolabeled estrogen from estrogen receptor alpha by scintillation counting

Chain of Estrogen receptor beta (Q92731 whole entry): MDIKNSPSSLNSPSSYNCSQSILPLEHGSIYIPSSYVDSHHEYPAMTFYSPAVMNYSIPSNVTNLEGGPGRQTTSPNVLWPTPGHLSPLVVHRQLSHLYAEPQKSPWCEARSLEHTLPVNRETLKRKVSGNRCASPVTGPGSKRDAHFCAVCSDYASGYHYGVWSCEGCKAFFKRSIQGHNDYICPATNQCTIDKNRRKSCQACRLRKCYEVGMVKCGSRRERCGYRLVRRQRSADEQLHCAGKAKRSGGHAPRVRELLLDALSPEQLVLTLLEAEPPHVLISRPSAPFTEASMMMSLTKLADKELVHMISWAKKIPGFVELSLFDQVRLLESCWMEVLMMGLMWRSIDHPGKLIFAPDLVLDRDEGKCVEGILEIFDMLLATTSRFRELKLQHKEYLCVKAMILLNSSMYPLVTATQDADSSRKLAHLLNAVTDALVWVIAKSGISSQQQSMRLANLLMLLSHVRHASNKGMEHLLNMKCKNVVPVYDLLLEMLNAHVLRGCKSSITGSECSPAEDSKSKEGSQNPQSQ

Compound | IC50 (Estrogen receptor beta) | IC50 (Estrogen receptor [1]) | IC50 (Estrogen receptor [2]) | inhibition in vivo at 1 mg/kg (Rattus norvegicus)
O=C(O)CCOc1ccc([C@@H]2Oc3cc(O)ccc3C3=C2c2ccc(O)cc2OCC3)cc1 | 44 nM | > 10000 nM | 580 nM | 0%
Oc1ccc2c(c1)O[C@@H](c1ccc(OCCN3CCOCC3)cc1)C1=C2CCOc2cc(O)ccc21 | 11 nM | > 10000 nM | 10 nM | 0%
Oc1ccc2c(c1)O[C@@H](c1ccc(OCCCN3CCCCC3)cc1)C1=C2CCOc2cc(O)ccc21 | 19 nM | 590 nM | 55 nM | 15%
O=C1CCC(=O)N1CCOc1ccc([C@@H]2Oc3cc(O)ccc3C3=C2c2ccc(O)cc2OCC3)cc1 | 18.6 nM | > 10000 nM | 6.2 nM | 0%
CN(C)CCOc1ccc([C@@H]2Oc3cc(O)ccc3C3=C2c2ccccc2OCC3)cc1 | 30 nM | 158 nM | 11.1 nM | 20%
Oc1ccc2c(c1)O[C@H](c1cccc(OCCN3CCSCC3)c1)C1=C2CCOc2cc(O)ccc21 | > 1000 nM | > 10000 nM | > 1000 nM | –
CN1CCN(CCOc2ccc([C@H]3Oc4cc(O)ccc4C4=C3c3ccc(O)cc3OCC4)cc2)CC1 | 86 nM | 90 nM | 8.7 nM | 30%
CN1CCN(CCOc2cccc([C@H]3Oc4cc(O)ccc4C4=C3c3ccc(O)cc3OCC4)c2)CC1 | > 1000 nM | > 10000 nM | > 1000 nM | –
CC(C)N(CCOc1ccc([C@H]2Oc3cc(O)ccc3C3=C2c2ccc(O)cc2OCC3)cc1)C(C)C | 20 nM | 287 nM | 5.4 nM | 30%
Oc1ccc2c(c1)O[C@H](c1ccc(OCCN3CCOCC3)cc1)C1=C2CCOc2cc(O)ccc21 | 35 nM | 43 nM | 1.6 nM | 40%
CN1CCN(CCOc2cccc([C@@H]3Oc4cc(O)ccc4C4=C3c3ccc(O)cc3OCC4)c2)CC1 | > 1000 nM | > 10000 nM | > 1000 nM | –
Oc1ccc2c(c1)O[C@@H](c1cccc(OCCN3CCSCC3)c1)C1=C2CCOc2cc(O)ccc21 | > 1000 nM | > 10000 nM | > 1000 nM | –

Second part, led by results:

IC50 (Estrogen receptor beta) | IC50 (Estrogen receptor [1]) | IC50 (Estrogen receptor [2]) | Compound | inhibition in vivo at 1 mg/kg (Rattus norvegicus)
19 nM | – | – | Oc1ccc2c(c1)O[C@H](c1ccc(OCCN3CCCCCC3)cc1)C1=C2CCOc2cc(O)ccc21 | 60%
63 nM | 25.9 nM | 6.3 nM | Oc1ccc2c(c1)O[C@@H](c1ccc(OCCN3CCCCC3)cc1)C1=C2CCOc2ccccc21 | 12%
200 nM | > 10000 nM | 190 nM | Oc1ccc2c(c1)O[C@@H](c1cccc(OCCN3CCCCC3)c1)C1=C2CCOc2cc(O)ccc21 | 0%
125 nM | 293 nM | 11 nM | Oc1ccc2c(c1)OCCC1=C2[C@@H](c2ccc(OCCN3CCCCCC3)cc2)Oc2ccccc21 | 110%
380 nM | > 10000 nM | 150 nM | Oc1ccc2c(c1)O[C@H](c1cccc(OCCN3CCCCC3)c1)C1=C2CCOc2cc(O)ccc21 | 0%
24 nM | 150 nM | 4.2 nM | COc1ccc2c(c1)OCCC1=C2[C@H](c2ccc(OCCN3CCCCC3)cc2)Oc2cc(O)ccc21 | 20%
105 nM | – | – | CN(C)CCOc1ccc([C@H]2Oc3ccccc3C3=C2c2ccc(O)cc2OCC3)cc1 | 55%
205 nM | 8990 nM | 180 nM | CN(C)CCOc1ccc([C@H]2Oc3cc(O)ccc3C3=C2c2ccccc2OCC3)cc1 | 23%
31 nM | 161 nM | 5 nM | Oc1ccc2c(c1)OCCC1=C2[C@H](c2ccc(OCCN3CCCCCC3)cc2)Oc2cc(F)ccc21 | 33%
13.4 nM | – | – | Oc1ccc2c(c1)O[C@@H](c1ccc(OCCN3CCCCCC3)cc1)C1=C2CCOc2cc(O)ccc21 | 50%
